# Molecular target: T1, human glucagon receptor (Homo sapiens, UniProt P47871)
# T1 construct: made in house; host or cells: FreeStyle CHO cells, transient transfection with pMSRαneo/hGCGR; membrane fraction (35,000 rpm pellet)
# Assay: Glucagon binding inhibitory activity ([125I]-glucagon binding to glucagon receptor membrane protein)
# Settings: human glucagon receptor membrane protein, [125I]-glucagon, 90 min room temperature
# Procedure: The glucagon binding inhibitory action of the compound of the present invention was evaluated by the following method.
# (1) Cloning of Human Glucagon Receptor Gene
# Human glucagon receptor gene was cloned by PCR reaction using human pancreas Marathon-ready cDNA (Clontech) as a template and the following primer set.
# PCR reaction was performed using Advantage 2 polymerase (Clontech) and according to the attached protocol. The obtained PCR product was electrophoresed on an agarose gel (1%). An about 1.4 kb of DNA fragment containing a glucagon receptor gene was recovered from the gel and digested with restriction enzymes EcoRI and NotI. DNA treated with the restriction enzymes was electrophoresed on an agarose gel (1%). An about 1.4 kb of DNA fragment was recovered and ligated to plasmid pMSRαneo digested with restriction enzymes EcoRI and NotI to construct a human-type glucagon receptor expression plasmid DNA “pMSRαneo/hGCGR”.
# (2) Preparation of Glucagon Receptor Membrane Protein
# A human-type glucagon receptor was expressed using FreeStyle CHO Expression System (Invitrogen). A transient expression in FreeStyle CHO cell was performed using a human-type glucagon receptor expression plasmid DNA “pMSRαneo/hGCGR” and according to the manual attached to the FreeStyle CHO Expression System. The above-mentioned DNA was transfected and the cultured with shaking for 2 days (37° C., 8% CO2, 125 rpm). 2400 ml of culture medium was centrifuged at 2,000 rpm for 10 min and the cells were collected. The collected cells were washed with PBS, suspended in homogenate buffer [10 mM NaHCO3 (pH 7.4), 1 mM EDTA, Complete EDTA-free (Roche, 1 tablet/50 ml)] and disrupted by polytron cell disrupter (Kinematica AG). Disruption solution was centrifuged at 2,000 rpm for 10 min and the supernatant was collected.
# (3) Measurement of Glucagon Binding Inhibitory Activity
# The plate was stood for 90 min at room temperature. The reaction solution was transferred from the reaction plate to a 96 well unifilter GF/C plate (Perkin Elmer Inc.) using a cell harvester (Perkin Elmer Inc.) and the membrane fraction was collected on the filter by suction. The filter was presoaked in 2 mg/ml of polyethyleneimine to prevent non-specific adsorption of labeled ligand. The filter was washed 4 times with a reaction buffer and dried for 2 hr at 42° C. To each well was added 25 μl of scintillator (MicroScint0; Perkin Elmer Inc.), and the fluorescence amount was measured using a microplate scintillation counter (TopCount NXT™; Perkin Elmer Inc.).
# In addition, the inhibitory rate (%) of the well added with the test compound (10 μM; containing 0.4% DMSO) was calculated, using the reaction rate of the well added only with 0.4% DMSO as 0% inhibitory rate, and the reaction rate of the well added with non-labeled glucagon (final concentration 1 μM) as 100% inhibitory rate.
# T1 sequence (P47871 26-477): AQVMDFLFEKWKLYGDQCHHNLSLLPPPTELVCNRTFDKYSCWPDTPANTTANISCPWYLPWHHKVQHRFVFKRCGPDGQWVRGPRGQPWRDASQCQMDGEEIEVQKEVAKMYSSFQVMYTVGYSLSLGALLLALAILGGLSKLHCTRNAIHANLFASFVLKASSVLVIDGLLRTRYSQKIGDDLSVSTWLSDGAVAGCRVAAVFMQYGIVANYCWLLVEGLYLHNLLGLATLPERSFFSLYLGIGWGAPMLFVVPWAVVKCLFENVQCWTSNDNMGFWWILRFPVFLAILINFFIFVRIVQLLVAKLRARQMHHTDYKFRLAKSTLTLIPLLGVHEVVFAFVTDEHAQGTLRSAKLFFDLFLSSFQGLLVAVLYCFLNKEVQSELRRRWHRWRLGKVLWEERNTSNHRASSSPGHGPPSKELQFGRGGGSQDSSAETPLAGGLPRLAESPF
row,IC50,Compound
1,230 nM,"Cc1c(C(Nc2ccc(C(=O)NCCC(=O)O)cc2)C2CCCCC2)oc2ccccc12 (stereo not drawn) [Example A17, 3-{[(4-{[cyclohexyl(3-methyl-1-benzofuran-2-yl)methyl]amino}phenyl)carbonyl]amino}propanoic acid]"

# Same assay, conditions: test compound 10 μM; 0.4% DMSO = 0%, non-labeled glucagon 1 μM = 100%
row,inhibitory rate (%) at 10 μM,Compound
1,78%,"Cc1c(C(Nc2ccc(C(=O)N(C)CCC(=O)O)cc2)C2CCCCC2)oc2ccc(F)cc12 (stereo not drawn) [Example A46, 3-{[(4-{[cyclohexyl(5-fluoro-3-methyl-1-benzofuran-2-yl)methyl]amino}phenyl)carbonyl](methyl)amino}propanoic acid]"
2,79%,"Cc1c(C(Nc2ccc(C(=O)N(C)CCC(=O)O)cc2)C2CCCC2)sc2ccccc12 (stereo not drawn) [Example A65, 3-{[(4-{[cyclopentyl(3-methyl-1-benzothiophen-2-yl)methyl]amino}phenyl)carbonyl](methyl)amino}propanoic acid]"

# Same assay, conditions: test compound 10 μM; 0.4% DMSO = 0%, non-labeled glucagon 1 μM = 100%; read-out: inhibitory rate (%) at 10 μM
row,Compound,inhibition at 10 µM
1,"Cc1c(C(Nc2ccc(C(=O)N(C)CCC(=O)O)nc2)C(C)C)oc2ccc(OCc3ccccc3)cc12 (stereo not drawn) [Example A172, 3-[{[5-({1-[5-(benzyloxy)-3-methyl-1-benzofuran-2-yl]-2-methylpropyl}amino)pyridin-2-yl]carbonyl}(methyl)amino]propanoic acid]",82%
2,"COc1ccc2oc(C(Nc3ccc(C(=O)N(C)CCC(=O)O)cc3)C3CCCCC3)cc2c1 (stereo not drawn) [Example A25, 3-{[(4-{[cyclohexyl(5-methoxy-1-benzofuran-2-yl)methyl]amino}phenyl)carbonyl](methyl)amino}propanoic acid]",60%
3,"COCc1nn(-c2ccc(OC(F)(F)F)cc2)cc1C(Nc1ccc(C(=O)N(C)CCC(=O)O)cc1)C1CCCCC1 (stereo not drawn) [Example 34, 3-[({4-[(cyclohexyl{3-(methoxymethyl)-1-[4-(trifluoromethoxy)phenyl]-1H-pyrazol-4-yl}methyl)amino]phenyl}carbonyl)(methyl)amino]propanoic acid]",79%
4,"Cc1c(C(Nc2ccc(C(=O)N(C)CCC(=O)O)cn2)C2CCCCC2)oc2c(F)cc(F)cc12 (stereo not drawn) [Example A185, 3-{[(6-{[cyclohexyl(5,7-difluoro-3-methyl-1-benzofuran-2-yl)methyl]amino}pyridin-3-yl)carbonyl](methyl)amino}propanoic acid]",71%
5,"CCOc1cccc(-n2cc(C(CC(C)C)Nc3ccc(C(=O)N(C)CCC(=O)O)cc3)c(CC)n2)c1 (stereo not drawn) [Example 85, 3-[{[4-({1-[1-(3-ethoxyphenyl)-3-ethyl-1H-pyrazol-4-yl]-3-methylbutyl}amino)phenyl]carbonyl}(methyl)amino]propanoic acid]",68%
6,"CCC(CC)C(Nc1ccc(C(=O)N(C)CCC(=O)O)cc1)c1sc2ccccc2c1C (stereo not drawn) [Example A135, 3-{[(4-{[2-ethyl-1-(3-methyl-1-benzothiophen-2-yl)butyl]amino}phenyl)carbonyl](methyl)amino}propanoic acid]",76%
7,"Cc1c(C(Nc2ccc(C(=O)N(C)CCC(=O)O)nc2)C2CCCCC2)sc2ccccc12 (stereo not drawn) [Example A59, 3-{[(5-{[cyclohexyl(3-methyl-1-benzothiophen-2-yl)methyl]amino}pyridin-2-yl)carbonyl](methyl)amino}propanoic acid]",77%
8,"CCC(CC)C(Nc1ccc(C(=O)N(C)CCC(=O)O)cc1)c1oc2ccc(F)cc2c1C (stereo not drawn) [Example A72, 3-{[(4-{[2-ethyl-1-(5-fluoro-3-methyl-1-benzofuran-2-yl)butyl]amino}phenyl)carbonyl](methyl)amino}propanoic acid]",79%
9,"O=C(O)CCNC(=O)c1ccc(NC(c2cn(-c3ccccc3)nc2OCc2ccccc2)C2CCCCC2)cc1 (stereo not drawn) [Example 66, 3-({[4-({[3-(benzyloxy)-1-phenyl-1H-pyrazol-4-yl](cyclohexyl)methyl}amino)phenyl]carbonyl}amino)propanoic acid]",74%
10,"CCC(Nc1ccc(C(=O)N(C)CCC(=O)O)cc1)c1oc2ccc(OCc3ccccc3)cc2c1C (stereo not drawn) [Example A179, 3-[{[4-({1-[5-(benzyloxy)-3-methyl-1-benzofuran-2-yl]propyl}amino)phenyl]carbonyl}(methyl)amino]propanoic acid]",84%
11,"COc1ccc(-n2cc(C(Nc3ccc(C(=O)N(C)CCC(=O)O)cc3)C3CCCCC3)c(C)n2)cc1 (stereo not drawn) [Example 24, 3-[{[4-({cyclohexyl[1-(4-methoxyphenyl)-3-methyl-1H-pyrazol-4-yl]methyl}amino)phenyl]carbonyl}(methyl)amino]propanoic acid]",73%
12,"CN(CCC(=O)O)C(=O)c1ccc(NC(c2cn(-c3ccc(C(F)(F)F)cn3)nc2C(C)(C)C)C2CCCCC2)cc1 (stereo not drawn) [Example 14, 3-{[(4-{[{3-tert-butyl-1-[5-(trifluoromethyl)pyridin-2-yl]-1H-pyrazol-4-yl}(cyclohexyl)methyl]amino}phenyl)carbonyl](methyl)amino}-propanoic acid]",71%

# Results, then the molecule that gave them:
row,inhibition at 10 µM,Compound
1,72%,"Cc1c(C(Nc2ccc(C(=O)NCCC(=O)O)cc2)C2CCCCC2)oc2ccccc12 (stereo not drawn) [Example A17, 3-{[(4-{[cyclohexyl(3-methyl-1-benzofuran-2-yl)methyl]amino}phenyl)carbonyl]amino}propanoic acid]"
2,78%,"COc1cc(OC)cc(-n2cc(C(Nc3ccc(C(=O)NCCC(=O)O)cc3)C3CCCCC3)c(C)n2)c1 (stereo not drawn) [Example 82, 3-({[4-({cyclohexyl[1-(3,5-dimethoxyphenyl)-3-methyl-1H-pyrazol-4-yl]methyl}amino)phenyl}carbonyl]amino)propanoic acid]"
3,80%,Cc1c(C(Nc2ccc(C(=O)N(C)CCC(=O)O)cc2)C2CCCCC2)oc2ccc(Cl)cc12 (stereo not drawn) [Example A89]
4,73%,"O=C(O)CCNC(=O)c1ccc(NC(c2nn(-c3ccccc3)c3ccccc23)C2CCCCC2)cc1 (stereo not drawn) [Example A14, 3-{[(4-{[cyclohexyl(1-phenyl-1H-indazol-3-yl)methyl]amino}phenyl)carbonyl]amino}propanoic acid]"
5,87%,"Cc1c(C(Nc2ccc(C(=O)N(C)CCC(=O)O)cc2)C2CCCCC2)oc2ccc(NCc3ccccc3)cc12 (stereo not drawn) [Example A131, 3-[{[4-({[5-(benzylamino)-3-methyl-1-benzofuran-2-yl](cyclohexyl)methyl}amino)phenyl]carbonyl}(methyl)amino]-propanoic acid]"
6,88%,"Cc1c(C(Nc2ccc(C(=O)N(C)CCC(=O)O)cc2)C2CCCCC2)oc2ccc(-c3cnn(C)c3)cc12 (stereo not drawn) [Example A181, 3-[{[4-({cyclohexyl[3-methyl-5-(1-methyl-1H-pyrazol-4-yl)-1-benzofuran-2-yl]methyl}amino)phenyl]carbonyl}(methyl)amino]propanoic acid]"
7,77%,"CCc1oc2ccccc2c1C(Nc1ccc(C(=O)NCCC(=O)O)cc1)C1CCCCC1 (stereo not drawn) [Example A29, 3-{[(4-{[cyclohexyl(2-ethyl-1-benzofuran-3-yl)methyl]amino}phenyl)carbonyl]amino}propanoic acid]"
8,72%,"COc1cccc2cc(C(Nc3ccc(C(=O)NCCC(=O)O)cc3)C3CCCCC3)oc12 (stereo not drawn) [Example A20, 3-{[(4-{[cyclohexyl(7-methoxy-1-benzofuran-2-yl)methyl]amino}phenyl)carbonyl]amino}propanoic acid]"
9,76%,"Cc1c(C(Nc2ccc(C(=O)N(C)CCC(=O)O)cc2)C2CCCCC2)oc2ccc(NS(=O)(=O)c3ccccc3)cc12 (stereo not drawn) [Example A130, 3-[({4-[(cyclohexyl{3-methyl-5-[(phenylsulfonyl)amino]-1-benzofuran-2-yl}methyl)amino]phenyl}carbonyl)(methyl)amino]propanoic acid]"
10,90%,"Cc1c(C(Nc2ccc(C(=O)NCCC(=O)O)nc2)C2CCCCC2)oc2ccc(F)cc12 (stereo not drawn) [Example A55, 3-{[(5-{[cyclohexyl(5-fluoro-3-methyl-1-benzofuran-2-yl)methyl]amino}pyridin-2-yl)carbonyl]amino}propanoic acid]"
11,76%,"O=C(O)CCNC(=O)c1ccc(NC(c2csc3ccccc23)C2CCCCC2)cc1 (stereo not drawn) [Example A1, 3-{[(4-{[1-benzothiophen-3-yl(cyclohexyl)methyl]amino}phenyl)carbonyl]amino}propanoic acid]"
12,83%,"Cc1c(C(Nc2ccc(C(=O)N(C)CCC(=O)O)cc2)C2CCCCC2)oc2ccc(Cl)nc12 (stereo not drawn) [Example A128, 3-{[(4-{[(5-chloro-3-methylfuro[3,2-b]pyridin-2-yl)(cyclohexyl)methyl]amino}phenyl)carbonyl](methyl)amino}-propanoic acid]"

# — US8436043B2 (Takeda Pharmaceutical Company Limited, priority 2008, dated 2013)
